Measurements as given in US20240358693A1, “METHODS OF TREATING PAIN” (Aisa Pharma, Inc., priority 2023, published 2024).

Test system: participants with SSc-RP
Experiment: Average severity of weekly RP attacks (VAS 0-10 cm scale)
Assay type: in vivo, human
Source text: The absolute change in average severity of weekly RP attacks (VAS 0-10 cm scale) from baseline to the end of each Dosing Period was and will be a secondary outcome variable. The sponsor-developed participant-informed diary will be used to record data. Average severity of weekly RP attacks is defined as the total severity scores of RP attacks divided by total number of RP attacks within the last 7 days of each dosing period. Total severity scores of RP attacks during the last 7 days of screening period divided by the total number of RP attacks will be used as baseline for the analysis of all periods. The variable will be calculated similar to frequency data as before.

[1] = Pooled Cilnidipine 10 mg and Cilnidipine 10 mg + Tadalafil 5 mg, n=1, by Baseline RCS, second subgroup, ITT Population - Part A
[2] = Pooled Cilnidipine 10 mg and Cilnidipine 10 mg + Tadalafil 5 mg, n=2, by Baseline RCS, first subgroup, ITT Population - Part A
[3] = Pooled Cilnidipine 10 mg and Cilnidipine 10 mg + Tadalafil 5 mg, n=3, Excluding Outliers, ITT Population - Part A
[4] = Pooled Cilnidipine 10 mg and Cilnidipine 10 mg + Tadalafil 5 mg, n=3, ITT Population - Part A
[5] = Pooled Cilnidipine 10 mg and Cilnidipine 10 mg + Tadalafil 5 mg, Excluding Outliers, ITT Population - Part A
[6] = Pooled Cilnidipine 10 mg and Cilnidipine 10 mg + Tadalafil 5 mg, Excluding Outliers, by Baseline RCS, first subgroup, ITT Population - Part A
[7] = Pooled Cilnidipine 10 mg and Cilnidipine 10 mg + Tadalafil 5 mg, Excluding Outliers, by Baseline RCS, second subgroup, ITT Population - Part A
[8] = Pooled Cilnidipine 10 mg and Cilnidipine 10 mg + Tadalafil 5 mg, ITT Population - Part A
[9] = Pooled Cilnidipine 10 mg and Cilnidipine 10 mg + Tadalafil 5 mg, first Baseline RCS subgroup block (not named), ITT Part A
[10] = Pooled Cilnidipine 10 mg and Cilnidipine 10 mg + Tadalafil 5 mg, first Baseline RCS subgroup block (not named), ITT Part A, score 0-10
[11] = Pooled Cilnidipine 10 mg and Cilnidipine 10 mg + Tadalafil 5 mg, second Baseline RCS subgroup block (not named), ITT Part A
[12] = Pooled Cilnidipine 10 mg and Cilnidipine 10 mg + Tadalafil 5 mg, second Baseline RCS subgroup block (not named), ITT Part A, score 0-10
[13] = Pooled Cilnidipine 20 mg and Cilnidipine 20 mg + Tadalafil 5 mg, n=1, by Baseline RCS, second subgroup, ITT Population - Part A
[14] = Pooled Cilnidipine 20 mg and Cilnidipine 20 mg + Tadalafil 5 mg, n=3, by Baseline RCS, first subgroup, ITT Population - Part A

In the case of COCCOC(=O)C1=C(C)NC(C)=C(C(=O)OC/C=C/c2ccccc2)C1c1cccc([N+](=O)[O-])c1 (stereo not shown) [Cilnidipine, cilnidipine], the “Average Severity of Weekly RP Attacks (All Attacks), Percent Change from Baseline, Median” value (Pooled (over cilnidipine doses), ITT Population - Part A) is reported as −7.69%, the “Average Severity (0-10) of Weekly Symptomatic RP Attacks, Mean” value [1] is reported as 5.23 and the “Average Severity (0-10) of Weekly Symptomatic RP Attacks, Median” value [1] is reported as 5.23. The “Average Severity of Weekly Symptomatic RP Attacks, Change from Baseline, Mean” value [1] was −1.13, the “Average Severity of Weekly Symptomatic RP Attacks, Change from Baseline, Median” value [1] was −1.13 and the “Average Severity of Weekly Symptomatic RP Attacks, Percent Change from Baseline, Mean” value [1] was −17.81%. The “Average Severity of Weekly Symptomatic RP Attacks, Percent Change from Baseline, Median” value [1] was −17.81%, the “Average Severity (0-10) of Weekly Symptomatic RP Attacks, Mean” value [2] was 3.34 and the “Average Severity (0-10) of Weekly Symptomatic RP Attacks, Median” value [2] was 3.34. For the same molecule, the “Average Severity of Weekly Symptomatic RP Attacks, Change from Baseline, Mean” value [2] was −1.22, the “Average Severity of Weekly Symptomatic RP Attacks, Change from Baseline, Median” value [2] was −1.22 and the “Average Severity of Weekly Symptomatic RP Attacks, Percent Change from Baseline, Mean” value [2] was −20.18%. For the same molecule, the “Average Severity of Weekly Symptomatic RP Attacks, Percent Change from Baseline, Median” value [2] was −20.18%, the “Average Severity (0-10) of Weekly Symptomatic RP Attacks, Mean” value [3] was 3.97 and the “Average Severity (0-10) of Weekly Symptomatic RP Attacks, Median” value [3] was 3.77. The “Average Severity of Weekly Symptomatic RP Attacks, Change from Baseline, Mean” value [3] was −1.19, the “Average Severity of Weekly Symptomatic RP Attacks, Change from Baseline, Median” value [3] was −1.13 and the “Average Severity of Weekly Symptomatic RP Attacks, Percent Change from Baseline, Mean” value [3] was −19.39%. The “Average Severity of Weekly Symptomatic RP Attacks, Percent Change from Baseline, Median” value [3] was −17.81%, the “Average Severity (0-10) of Weekly Symptomatic RP Attacks, Mean” value [4] was 3.97 and the “Average Severity (0-10) of Weekly Symptomatic RP Attacks, Median” value [4] was 3.77. For the same molecule, the “Average Severity of Weekly Symptomatic RP Attacks, Change from Baseline, Mean” value [4] was −1.19, the “Average Severity of Weekly Symptomatic RP Attacks, Change from Baseline, Median” value [4] was −1.13 and the “Average Severity of Weekly Symptomatic RP Attacks, Percent Change from Baseline, Mean” value [4] was −19.39%. For the same molecule, the “Average Severity of Weekly Symptomatic RP Attacks, Percent Change from Baseline, Median” value [4] was −17.81%, the “Average Severity of Weekly RP Attacks (All Attacks), Change from Baseline, Mean” value [5] was −1.34 and the “Average Severity of Weekly RP Attacks (All Attacks), Change from Baseline, Median” value [5] was −1.32. For the same molecule, the “Average Severity of Weekly RP Attacks (All Attacks), Mean” value (from here on “Average Severity … (All Attacks), Mean”) [5] was 3.62, the “Average Severity of Weekly RP Attacks (All Attacks), Median” value (“Average Severity … (All Attacks), Median” for short) [5] was 3.05 and the “Average Severity of Weekly RP Attacks (All Attacks), Percent Change from Baseline, Mean” value [5] was −23.02%. For the same molecule, the “Average Severity of Weekly RP Attacks (All Attacks), Percent Change from Baseline, Median” value [5] was −21.20%, the “Average Severity of Weekly Symptomatic RP Attacks (Mean)” value [6] was 3.34 and the “Average Severity of Weekly Symptomatic RP Attacks (Median)” value [6] was 3.34. For the same molecule, the “Average Severity of Weekly Symptomatic RP Attacks, Change from Baseline, Mean” value [6] was −1.22, the “Average Severity of Weekly Symptomatic RP Attacks, Change from Baseline, Median” value [6] was −1.22 and the “Average Severity of Weekly Symptomatic RP Attacks, Percent Change from Baseline, Mean” value [6] was −20.18%. The “Average Severity of Weekly Symptomatic RP Attacks, Percent Change from Baseline, Median” value [6] was −20.18%, the “Average Severity of Weekly Symptomatic RP Attacks (Mean)” value [7] was 5.23 and the “Average Severity of Weekly Symptomatic RP Attacks (Median)” value [7] was 5.23. The “Average Severity of Weekly Symptomatic RP Attacks, Change from Baseline, Mean” value [7] was −1.13, the “Average Severity of Weekly Symptomatic RP Attacks, Change from Baseline, Median” value [7] was −1.13 and the “Average Severity of Weekly Symptomatic RP Attacks, Percent Change from Baseline, Mean” value [7] was −17.81%. For the same molecule, the “Average Severity of Weekly Symptomatic RP Attacks, Percent Change from Baseline, Median” value [7] was −17.81%, the “Average Severity of Weekly RP Attacks (All Attacks), Change from Baseline, Mean” value [8] was −1.34 and the “Average Severity of Weekly RP Attacks (All Attacks), Change from Baseline, Median” value [8] was −1.32. For the same molecule, the “Average Severity … (All Attacks), Mean” value [8] was 3.62, the “Average Severity … (All Attacks), Median” value [8] was 3.05 and the “Average Severity of Weekly RP Attacks (All Attacks), Percent Change from Baseline, Mean” value [8] was −23.02%. For the same molecule, the “Average Severity of Weekly RP Attacks (All Attacks), Percent Change from Baseline, Median” value [8] was −21.20%, the “Average Severity of Weekly RP Attacks (All Attacks), Percent Change from Baseline, Mean” value [9] was −23.94% and the “Average Severity of Weekly RP Attacks (All Attacks), Percent Change from Baseline, Median” value [9] was −23.94%. For the same molecule, the “Average Severity of Weekly RP Attacks (All Attacks), Change from Baseline, Mean” value [10] was −1.35, the “Average Severity of Weekly RP Attacks (All Attacks), Change from Baseline, Median” value [10] was −1.35 and the “Average Severity … (All Attacks), Mean” value [10] was 2.97. The “Average Severity … (All Attacks), Median” value [10] was 2.97, the “Average Severity of Weekly RP Attacks (All Attacks), Percent Change from Baseline, Mean” value [11] was −21.20% and the “Average Severity of Weekly RP Attacks (All Attacks), Percent Change from Baseline, Median” value [11] was −21.20%. For the same molecule, the “Average Severity of Weekly RP Attacks (All Attacks), Change from Baseline, Mean” value [12] was −1.32, the “Average Severity of Weekly RP Attacks (All Attacks), Change from Baseline, Median” value [12] was −1.32 and the “Average Severity … (All Attacks), Mean” value [12] was 4.90. For the same molecule, the “Average Severity … (All Attacks), Median” value [12] was 4.90, the “Average Severity (0-10) of Weekly Symptomatic RP Attacks, Mean” value [13] was 5.06 and the “Average Severity (0-10) of Weekly Symptomatic RP Attacks, Median” value [13] was 5.06. For the same molecule, the “Average Severity of Weekly Symptomatic RP Attacks, Change from Baseline, Mean” value [13] was −1.79, the “Average Severity of Weekly Symptomatic RP Attacks, Change from Baseline, Median” value [13] was −1.79 and the “Average Severity of Weekly Symptomatic RP Attacks, Percent Change from Baseline, Mean” value [13] was −26.14%. The “Average Severity of Weekly Symptomatic RP Attacks, Percent Change from Baseline, Median” value [13] was −26.14%, the “Average Severity (0-10) of Weekly Symptomatic RP Attacks, Mean” value [14] was 2.85 and the “Average Severity (0-10) of Weekly Symptomatic RP Attacks, Median” value [14] was 2.40. The “Average Severity of Weekly Symptomatic RP Attacks, Change from Baseline, Mean” value [14] was −1.06, the “Average Severity of Weekly Symptomatic RP Attacks, Change from Baseline, Median” value [14] was −0.33 and the “Average Severity of Weekly Symptomatic RP Attacks, Percent Change from Baseline, Mean” value [14] was −24.28%. For the same molecule, the “Average Severity of Weekly Symptomatic RP Attacks, Percent Change from Baseline, Median” value [14] was −12.02%.
